Assay results as given in patent US12570684B2 (UNIVERSITY OF TENNESSEE RESEARCH FOUNDATION, priority 2020, dated 2026).
“Also recorded” adds a separate entry of the source.

Experiments:
[1] = target: MraY (Hydrogenivirga sp.) (Hydrogenivirga sp. 128-5-R1-1, UniProt Z9Y2G8N0L0); experiment: MraY assay; assay type: biochemical
Description: Expression and purification of HyMraY. The gene mraY of Hydrogenivirga spp. 128-5-R1-1 was cloned with a N-terminal His6 tag into a pET22b vector. […] The proteins were purified using a nickel, cation exchange, and size exclusion chromatography.
MraY assay. MraY assay substrates, Park's nucleotide-N^ε-C6-dansylthiourea, neryl phosphate, were chemically synthesized according to the reported procedures.^7 Park's nucleotide-N^ε-C6-dansylthiourea (2 mM stock solution, 1.88 jiL), MgCl2 (0.5 M, 5 jiL), KCl (2 M, 5 jiL), Triton X-100 (0.5%, 5.63 jiL), Tris buffer (pH 8.0, 50 mM), neryl phosphate (0.1 M, 2.25 jiL), and inhibitor molecule (0-50 .ig/mL in Tris buffer) were placed in a 1.5 mL Eppendorf tube. […] (26° C.) and quenched with CHCl3 (100 jiL). […] The aqueous phase was assayed via reverse-phase HPLC.

[2] = system: KB; experiment: MTT cytotoxicity assay; assay type: cell-based; settings: 72 h
Description: (§1) Cell lines. The human primary PDAC cell lines PANC-1 (ATCC CRL 1469); Capan-2 (ATCC HTB-80) and metastatic PDAC cell lines Capan-1 (ATCC HTB-79), AsPC-1 (ATCC CRL-1682), L1210 (ATCC CCL-219), KB (ATCC CCL-17), HeLa, SiHa (ATCC HTB-35), HCT-116 (ATCC CCL-247), DLD-1 (ATCC CCL221), hTERT-HPNE (ATCC CRL-4023), Vero (ATCC CCL-81) were purchased from the ATCC. The cell lines were cultured and maintained in the media as recommended by the supplier. The cell lines were regularly tested for mycoplasma contamination and authenticated. In addition to ATCC cell lines, Dr. Glazer's lab generated patient-derived PDAC cell line, PD002. PD002 Cells were maintained and cultured in DMEM medium supplemented with 20% FBS and 100 IU/mL penicillin and incubated at 37° C. with 5% CO2.
(§2) MTT cytotoxicity assay. To study the effect of treatment with DPAGT1 inhibitors on the growth and proliferation of cells, a fixed number of cells (5×10^4 cells/well, 196 μL) were plated in a 96 well plate. Into each well 5 μL of drug concentration was added. After 72 h of incubation with drugs at 37° C., 5% CO2, 10 μL of MTT solution (5 mg/mL in PBS) was added and incubated another 3 h at 37° C., 5% CO2. The medium was removed, and DMSO (200 μL/well) was added. Viability was assessed on the basis of cellular conversion of MTT into a purple formazan product. The absorbance of the colored formazan product was measured at 570 nm by BioTek Synergy HT Spectrophotometer.

[3] = system: AsPC-1; experiment: MTT cytotoxicity assay; assay type: cell-based, human; settings: 72 h
Description: as §1, §2

[4] = system: Capan-2; experiment: MTT cytotoxicity assay; assay type: cell-based, human; settings: 72 h
Description: as §1, §2

[5] = system: PANC-1; experiment: MTT cytotoxicity assay; assay type: cell-based, human; settings: 72 h
Description: as §1, §2

[6] = system: cell lines in Table 2; experiment: MTT assays, summary over the cell lines in Table 2; assay type: cell-based
Description: as §1, §2

[7] = system: Myocobacterium tuberculosis H37Rv, Mycobacterium avium 2285, Mycobacterium smegmatis (ATCC607); experiment: Antimycobacterial activity (MIC); assay type: cell-based, Mycobacterium spp.; settings: M. tuberculosis H37Rv, M. avium 2285, M. smegmatis (ATCC607)
[8] = system: PD002; experiment: Kinetic proliferation assay (IncuCyte); assay type: cell-based
Description: Kinetic Proliferation Assay. To study the effect of treatment with DPAGT1 inhibitors on the growth and proliferation of cells, a fixed number of cells (2×10^4) were plated in multiple wells of a 96 well plate, incubated for 24 h to let cells settle down. Then, CPPB (5) was added (0-50 μM). Images were obtained every 4 h using an IncuCyte Live-Cell Imaging System (Essen BioScience, Ann Arbor, MI). After 72 h, cell proliferation was quantified using the metric phase object confluence (POC), a measurement of the area of the field of view that is covered by cells, which is calculated by the integrated software.

[9] = system: HCT-116; experiment: Scratch (wound healing) assay; assay type: cell-based; settings: scratch assays
Description: (§3) Scratch Assay. A confluent monolayer was formed in 24-well plates. The monolayer was scratched by a sterile 200 μL pipette tip and washed with PBS to remove cell debris. Complete medium with CPPB (5) (0, 0.05, 0.1, 0.2 μM) were added and scratched areas were photographed with microscope. The scratched cells were incubated at 37° C., 5% CO2. After 24 h, medium was removed and cells were stained with a 1:1 mixture of crystal violet and PBS for 5 min., washed with PBS twice, and photographed with microscope. Wound areas were measured and recovered areas were calculated.

[10] = system: PD002; experiment: Scratch (wound healing) assay; assay type: cell-based; settings: 0.2 μM, 24 h; untreated PD002 63%
Description: as §3

[11] = system: SiHa; experiment: Scratch (wound healing) assay; assay type: cell-based; settings: 0.2 μM
Description: as §3

[12] = system: pancreatic cancer cell lines (Capan-2, PANC-1, and AsPC-1); experiment: Scratch (wound healing) assay; assay type: cell-based, human; settings: 0.05, 0.1, and 0.2 μM, 24 h
Description: as §3

[13] = system: PD002; experiment: Cell migration assay using Transwell (Boyden) chamber; assay type: cell-based; settings: 0.1 μM, 18 h; compared to tunicamycin and gemcitabine at 0.1 μM
Description: Cell migration assays using Transwell chamber. Cell migration assay was performed using Boyden chamber (thermo fisher). PD002 cells (˜10^4 cells/mL) were seeded in 96-wells plate (Corning, HTS Transwell-96 Well Permeable Supports, pore size: 8 μm) in FBS free media and the lower chambers were filled with 10% FBS medium. CPPB, tunicamycin, or gemcitabine (0.1 μM) was added to the upper chamber. The cells were incubated for 18 h at 37° C. under 5% CO2. The cells were fixed using 4% paraformaldehyde for 0.5 h and stained with 0.05% crystal violet (300 μL/well), after 0.5 h, images were captured via 10× magnification microscopy.

[14] = system: Snail; experiment: Immunofluorescence assay using an anti-Snail antibody; assay type: cell-based
[15] = system: E-cadherin; experiment: Immunofluorescent staining of E-cadherin; assay type: cell-based
[16] = system: DPAGT1 gene; experiment: RT-qPCR analyses of DPAGT1 expression level; assay type: cell-based; settings: PD002

MraY (Hydrogenivirga sp.), sequence (Z9Y2G8N0L0 7-365 limits assumed): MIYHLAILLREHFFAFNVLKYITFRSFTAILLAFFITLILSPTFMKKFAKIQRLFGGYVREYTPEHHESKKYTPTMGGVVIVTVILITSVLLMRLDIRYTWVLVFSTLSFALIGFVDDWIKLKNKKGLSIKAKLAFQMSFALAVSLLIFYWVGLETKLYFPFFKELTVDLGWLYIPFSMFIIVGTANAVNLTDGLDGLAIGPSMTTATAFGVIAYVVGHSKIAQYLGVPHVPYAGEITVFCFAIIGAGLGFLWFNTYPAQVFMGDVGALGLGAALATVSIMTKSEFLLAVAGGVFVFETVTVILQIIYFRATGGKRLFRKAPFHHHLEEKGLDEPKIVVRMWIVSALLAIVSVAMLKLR

(2S,3S,4S)-2-((1R)-2-Amino-1-((2S,5R)-5-(2,4-dioxo-3,4-dihydropyrimidin-1(2H)-yl)-4-hydroxy-3-methoxytetrahydrofuran-2-yl)-2-oxoethoxy)-3,4-dihydroxy-N-(4-(4-(4-(trifluoromethoxy)-phenyl)piperidin-1-yl)benzyl)-3,4-dihydro-2H-pyran-6-carboxamide [CPPB]
IC50 [1]: 10.3 µM | IC50 [2]: 35 µM | IC50 [3]: 25 µM | IC50 [4]: 30 µM | IC50 [5]: 35 µM | viability of all pancreatic cancers tested (MTT) ([6]; 20 μM concentration): remained viable | cytotoxicity against a series of cancer and healthy cell lines ([6]; at 10 μM or higher concentrations): not cytotoxic | MIC [7]: 6.25 to 12.5 µg/mL | phase area confluence of PD002 culture after 72 h ([8]; 50 μM, same as at time 0 h, control (PBS) ca. 70%): 10-13% | cell proliferation inhibited at time 72 h ([8]; 0.2-20 μM): ca. 20% | cell migration of HCT-116 [9]: not inhibited; also recorded: did not inhibit migration | wound-healing rate [10]: approximately 20% | migration of SiHa [11]: strongly inhibited migration | migration of pancreatic cancer cell lines vs PBS control [12]: migrated far less | cell migration of PD002 via transwell chamber [13]: inhibited on a higher level | Snail expression in pancreatic cancer cells ([14]; PANC-1, AsPC-1, Capan-2, PD002): decreased by the treatment with CPPB in a concentration dependent manner; also recorded: decreased the Snail expression | Snail expression level in HCT-116 ([14]; between 0.05 and 2.0 μM): not noticeably changed | E-cadherin expression level in PD002 ([15]; 0.05-0.2 μM): not noticeably changed | E-cadherin expression level in Panc-1 ([15]; 0.05-0.2 μM): slightly increased | E-cadherin expression levels of PD002, PANC-1, and HCT-116 ([15]; 0.05-2.0 μM): not changed significantly | DPAGT1 gene expression [16]: without significantly decreasing
